Test results published in PMC4876372 (Scientific Reports, 2016).

How the values were obtained:
[1] = target: T1, His-tagged human recombinant ITPA protein (Homo sapiens, UniProt Q9BY32); experiment: ITPA enzyme assay; assay type: biochemical; conditions: at 100 μM
T1 construct: His; purchased ProSpec
Method: (§1) Likewise, the enzymatic activities of ITPA and DCTPP1 were measured using a PPiLight Inorganic Pyrophosphate Assay kit. For the ITPA enzyme assay, we used ITPA assay buffer (100 mM Tris-acetate, 50 mM Mg(OAc)2, 0.005% Tween-20, and 2 mM DTT, pH 7.5), His-tagged human recombinant ITPA protein (5 nM; ProSpec), and ITP (25 μM). For the DCTPP1 enzyme assay, we used DCTPP1 assay buffer (100 mM Tris-acetate, 100 mM NaCl, 10 mM Mg(OAc)2, 0.005% Tween-20, and 2 mM DTT, pH 7.5), His-tagged human recombinant DCTPP1 protein (50 nM; ATGen), and deoxycytidine triphosphate (dCTP; 50 μM).
(§2) To exclude false positive compounds that inhibit PPi detection, the effects of test compounds on 10 μM Na4P2O7-induced luciferase activity were examined.

[2] = target: T2, His-tagged human recombinant DCTPP1 protein (Homo sapiens, UniProt Q9H773); experiment: DCTPP1 enzyme assay; assay type: biochemical; conditions: at 100 μM
T2 construct: His; purchased ATGen
T2 sequence (Q9H773 1-170): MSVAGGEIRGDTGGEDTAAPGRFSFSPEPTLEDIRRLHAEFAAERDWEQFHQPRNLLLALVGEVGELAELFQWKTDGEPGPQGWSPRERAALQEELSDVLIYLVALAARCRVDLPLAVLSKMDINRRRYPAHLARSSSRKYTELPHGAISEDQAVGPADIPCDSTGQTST
Method: as §1, §2

[3] = Cell death assay (WST-8) in HeLa cells; assay type: cell-based, human; conditions: human, HeLa cells (cervical cancer); 72 h, WST-8; read-out: cytotoxicity IC50 against HeLa cells
Method: Human cancer cell lines HeLa (cervical cancer), MIA PaCa-2 (pancreatic cancer), A431 (epidermoid carcinoma), and human embryonic kidney derived cell line HEK293T were cultured in Dulbecco’s Modified Eagle’s Medium (DMEM; Invitrogen) containing 10% fetal bovine serum (FBS), penicillin G (50 units/mL) and streptomycin (50 µg/mL). Human cancer cell lines Panc-1 (pancreatic cancer) and Jurkat (T cell lymphoma) were cultured in RPMI (Gibco) containing 10% FBS, penicillin G (50 units/mL) and streptomycin (50 µg/mL). Human osteosarcoma cell line MG-63, mouse embryonic fibroblast NIH3T3 cells and its transformant NIH3T3/KRAS cells1 were cultured in DMEM (Sigma-Aldrich) containing 10% calf serum, glutamine (0.3 g/L), penicillin G (50 units/mL), and streptomycin (50 µg/mL). All cell lines were incubated at 37 °C in a humidified atmosphere containing 5% CO2.
The cells were seeded in 96-well plates, cultured overnight, and treated with test compounds for the indicated time. Subsequently, cell viability was measured by the WST-8 assay, using Cell Count Reagent SF (Nacalai Tesque) according to the manufacturer ’s instructions, with the measurement of absorbance set at 450 nm on the ARVO SX 1420 Multilabel Counter (Wallac). […]

porcine tubulin = target: T3, porcine tubulin (Sus scrofa, UniProt P02550+P02554); experiment: In vitro tubulin polymerization assay; assay type: biochemical; conditions: even at 300 μM
T3 construct: purchased Cytoskeleton
Method: In vitro tubulin polymerization assay was performed using a tubulin polymerization assay kit (Cytoskeleton) according to the manufacturer’s instructions. Briefly, lyophilized porcine tubulin was solubilized to a final concentration of 2 mg/mL in reaction buffer containing 80 mM piperazine-N,N′-bis(2-ethanesulfonic acid) (PIPES; pH 6.9), 2 mM MgCl2, 0.5 mM ethylene glycol tetraacetic acid (EGTA), 1 mM guanosine-5′-triphosphate (GTP), 10 μM fluorescent reporter, and 20% glycerol, and kept at 4 °C. Compounds (100 × DMSO stock solutions) were added to prewarmed half-area 96-well black plates. Cold tubulin solution was added to the wells. The plate contents were mixed by shaking, and fluorescence (Ex 350 nm, Em 435 nm) was read every minute for 1 h using a fluorescence microplate reader (Molecular Devices).

[4] = system: nuclear 53BP1 foci in HeLa cells; experiment: 53BP1 foci immunofluorescence (DNA damage); assay type: cell-based, human; conditions: 24 h, only at the higher concentrations (100-300 μM)
Method: For 53BP1, test compound–treated HeLa cells were fixed in 3% formalin in PBS containing 0.1% Triton X-100 for 15 min and permeabilized in 0.5% Triton X-100 for 5 min. After blocking with 10% FBS and 0.1% Triton X-100 in PBS for 1 h, cells were incubated sequentially with a primary antibody against 53BP1 (1:600, sc-22760; Santa Cruz Biotechnology) in blocking solution at 37 °C for 1 h and with Alexa Fluor 568-conjugated secondary antibody (1:400, Life Technologies) under the same condition.
After a quick rinse in PBS, DNA was counterstained with 0.5 µg/mL Hoechst 33342 (Sigma-Aldrich) in PBS at room temperature for 10 min. Images were analyzed on a fluorescence microscope (Delta Vision). […]

T3 sequence (P02550 whole entry): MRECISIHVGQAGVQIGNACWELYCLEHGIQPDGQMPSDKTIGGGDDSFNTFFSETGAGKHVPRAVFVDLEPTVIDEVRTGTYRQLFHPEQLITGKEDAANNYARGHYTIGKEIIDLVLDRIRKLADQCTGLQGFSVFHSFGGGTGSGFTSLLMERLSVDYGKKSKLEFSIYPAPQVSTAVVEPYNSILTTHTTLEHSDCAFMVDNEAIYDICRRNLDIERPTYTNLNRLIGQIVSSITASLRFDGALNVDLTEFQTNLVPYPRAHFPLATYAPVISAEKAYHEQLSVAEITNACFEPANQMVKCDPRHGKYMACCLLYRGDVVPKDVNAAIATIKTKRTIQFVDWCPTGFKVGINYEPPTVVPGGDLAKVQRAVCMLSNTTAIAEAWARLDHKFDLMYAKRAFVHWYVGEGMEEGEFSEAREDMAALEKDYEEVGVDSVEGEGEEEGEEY
T3 sequence (P02554 whole entry): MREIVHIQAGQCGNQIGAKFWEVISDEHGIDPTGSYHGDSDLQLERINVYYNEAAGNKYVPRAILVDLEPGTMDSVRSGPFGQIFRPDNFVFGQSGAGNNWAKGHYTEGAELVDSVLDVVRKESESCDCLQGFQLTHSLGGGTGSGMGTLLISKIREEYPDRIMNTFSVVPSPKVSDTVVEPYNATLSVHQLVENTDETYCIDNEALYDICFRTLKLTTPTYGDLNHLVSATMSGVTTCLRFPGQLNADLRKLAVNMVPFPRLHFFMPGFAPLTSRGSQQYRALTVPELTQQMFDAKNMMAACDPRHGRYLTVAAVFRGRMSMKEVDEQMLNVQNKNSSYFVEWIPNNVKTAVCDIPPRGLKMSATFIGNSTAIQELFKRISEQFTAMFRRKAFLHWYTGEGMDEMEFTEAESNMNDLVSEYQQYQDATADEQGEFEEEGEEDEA

Structure (SMILES) | effect on enzymatic activity of ITPA [1] | effect on enzymatic activity of DCTPP1 [2] | IC50 at 72 h [3] | effect on tubulin polymerization in vitro (porcine tubulin) | DNA damage (nuclear 53BP1 foci formation) [4]
CC1(C)CC2CC(C)(CN2c2ncnc3[nH]cnc23)C1 (stereo not shown) [NPD7155] | did not affect | did not affect | 65 µM | did not affect tubulin polymerization | increased nuclear 53BP1 foci formation
Nc1nc(NCCc2ccccc2)c2nc[nH]c2n1 [NPD9948] | did not affect | did not affect | 35 µM | did not affect tubulin polymerization | increased nuclear 53BP1 foci formation
